From patent US20040247571A1, “Neural cells expressing tyrosine hydroxylase” (priority 2001, published 2004) come the findings set out here.

B1: IL-1α: Interleukin (protein, UniProt P01583 113-271, looked up)
Interleukin-1 alpha: SAPFSFLSNVKYNFMRIIKYEFILNDALNQSIIRANDQYLTAAALHNLDEAVKFDMGAYKSSKDDAKITVILRISKTQLYVTAQDEDQPVLLKEMPEIPKTITGSETNLLFFWETHGTKNYFTSVAHPNLFIATKQDYWVCLAGGPPSITDFQILENQA
B2: GDNF: Glial cell-line Derived Neurotrophic Factor (protein, UniProt P39905 78-211, looked up)
Glial cell line-derived …: SPDKQMAVLPRRERNRQAAAANPENSRGKGRRGQRGKNRGCVLTAIHLNVTDLGLGYETKEELIFRYCSGSCDAAETTYDKILKNLSRNRRLVSDKVGQACCRPIAFDDDLSFLDDNLVYHILRKHSAKRCGCI

One test has as its system Human neural progenitor cells expanded in EGF/bFGF/LIF (991013FBr). The test can be described thus: Importance of the various factors for TH induction. It counts as cell-based. Particulars: one factor omitted from the cocktail of Example 1, 3 days. On the procedure:
Cultures of human neural progenitors established from human fetal forebrain expanded in N2 medium supplemented with EGF/bFGF/LIF or EGF/bFGF/CNTF as indicated were mechanically passaged and maintained in expansion medium for 5-7 days. The small spheres were then plated on glass coverslips coated with poly-L-lysine (PLL, 100 μg/ml) and laminin (50 μg/ml) at a cell density of 100.000 cells/cm^2 in N2 medium containing 1% FBS for “default differentiation” or in N2 medium supplemented with aFGF (100 ng/ml), BDNF (50 ng/ml), forskolin (25 μM), DA (10 μM), TPA (100 nM), dbcAMP (100 μM), GDNF (20 ng/ml), IGFI (100 ng/ml), IL-1α (200 pg/ml). N2 medium consists of DMEM:F12 (1:1) supplemented with N2 (insulin, transferrin, selenium, progesterone and putrescine), 0.6% glucose and 5 mM HEPES. After 3 days incubation, cells were fixed in 4% paraformaldehyde in PBS for 20 min at room temperature. The cells were washed three times with PBS, followed by overnight incubation with primary antibody (rabbit anti-TH, PelFreez 1:100 or Chemicon 1:800) diluted in PBS incubation buffer which contained 10% normal goat serum, 0.3% Triton X-100 (Sigma) and 1% BSA at 4° C. in a humidified chamber. The cells were washed with PBS, and incubated for 1 hr at room temperature in the dark with secondary antibody (anti-rabbit Cy3, (Chemicon 1:500) diluted in incubation buffer. After washing with PBS, nuclei were counterstained with DAPI or Hoechst 33342. Negative controls (omission of the primary antibody) were included in each experiment.
To quantify the percentage of TH cells, cells were counted in at least three fields from three to six independent coverslips randomly chosen using a 20× objective. The number of TH-immunoreactive cells in each field was counted. The total cell number was obtained by counting nuclei counterstained with DAPI or Hoechst 33342.
Human neural progenitor cells expanded in EGF/bFGF/LIF (991013FBr) cells were seeded as small spheres (5 days after trituration to single cell suspension) on PLL/laminin coated 12 mm coverslips at a cell density of 100.000 cells/cm^2 in N2 medium containing different combinations of the factors described in Example 1. After incubation for 3 days, cells were fixed in 4% PFA and immunostained for TH as described in Example 1.
Consider BDNF: Brain Derived Neurotrophic Factor, for which the “effect of omitting the factor from the cocktail on induction of TH positive cells” value (“effect of omitting the factor” below) was “did not affect induction of TH positive cells”.
On to “IGF-I: Insulins (IGF-I, IGF-II, insulin)”, for which the “effect of omitting the factor” value is given as “did not affect induction of TH positive cells”.
Take `NCCc1ccc(O)c(O)c1` [dopamine, reference compound]: the “effect of omitting the factor” value is reported as “did not affect induction of TH positive cells”.
On to B1, for which the “effect of omitting the factor” value is on record as “did not affect induction of TH positive cells”.
The same measure, in the same setting: the result for B2 reads “did not affect induction of TH positive cells”.

The same test, now with this note: same concentration (100 ng/ml), 3 days.
For the molecule “FGF-2/bFGF: basic fibroblast growth factor”, the “effect of replacing FGF-1/aFGF in the cocktail on TH immunoreactive cells” value is “without any effect on numbers or morphology of TH immunoreactive cells”.
